According to patent publication US20110152094A1, “Herbicidal compositions comprising flufenacet” (Bayer CropScience AG, priority 2009, published 2011):

Assays:
Format in all cases: in vivo
STEME = Stellaria media [1] = assay: Greenhouse trial, PE application at different sowing depths (test method 9); details: g of AS/ha: (A) 120, (B) 1200, (A)+(B) 120 + 1200
Protocol: (§1) In the standard design of the test, seeds of various broad-leaved weed and weed grass biotypes (origins) were sown in a 8-13 cm diameter pot filled with natural soil of a standard field soil (loamy silt; non-sterile) and covered with a covering soil layer of about 1 cm. The pots were then cultivated in a greenhouse (12-16 h of light, temperature day 20-22° C., night 15-18° C.) until the time of application. The pots were treated on a laboratory track sprayer with spray liquors comprising the compositions according to the invention, mixtures of the prior art or components used individually. Application of the active compounds or active compound combinations formulated as WG, WP, EC or otherwise was carried out at the appropriate growth stages of the plants. The application rate for the spray application was 100-600 l of water/ha. After the treatment, the plants were returned to the greenhouses.
(§2) About 3 weeks after the application, the soil action or/and foliar action was assessed visually according to a scale of 0-100% in comparison to an untreated comparative group: 0%=no noticeable effect compared to the untreated comparative group; 100%=full effect compared to the untreated comparative group.
(§3) (notes: the term “seeds” also includes vegetative propagation forms such as, for example, rhizome pieces; abbreviations used: h light=hours of illumination, g of AS/ha=gram of active substance per hectare, l/ha=liter per hectare, S=sensitive, R=resistant) • 1. Pre-emergence action against weeds: seeds of various broad-leaved weed and weed grass biotypes (origins) were sown in a 8-13 cm diameter pot filled with natural soil of a standard field soil (loamy silt; non-sterile) and covered with a covering soil layer of about 1 cm. The pots were then cultivated in a greenhouse (12-16 h of light, temperature day 20-22° C., night 15-18° C.) until the time of application. The pots were treated at the BBCH stage 00-10 of the seeds/plants on a laboratory track sprayer with spray liquors comprising the compositions according to the invention, mixtures or components used individually, as WG, WP, EC or other formulations. The application rate for the spray application was 100-600 l of water/ha. After the treatment, the plants were returned to the greenhouses and, when required, treated with fertilizer and watered. • 2. Post-emergence action against weeds: seeds of various broad-leaved weed and weed grass biotypes (origins) were sown in a 8-13 cm diameter pot filled with natural soil of a standard field soil (loamy silt; non-sterile) and covered with a covering soil layer of about 1 cm. The pots were then cultivated in a greenhouse (12-16 h of light, temperature day 20-22° C., night 15-18° C.) until the time of application. The pots were treated at various BBCH stages between 11-25 of the seeds/plants, i.e. generally between two to three weeks after the start of the cultivation, on a laboratory track sprayer with spray liquors comprising the compositions according to the invention, mixtures or components used individually, as WG, WP, EC or other formulations. The application rate for the spray application was 100-600 l of water/ha. After the treatment, the plants were returned to the greenhouses and, when required, treated with fertilizer and watered. • 3. Selective pre-emergence action: seeds of various crop species (origins) were sown in a 8-13 cm diameter pot filled with natural soil of a standard field soil (loamy silt; non-sterile) and covered with a covering soil layer of about 1 cm. The pots were then cultivated in a greenhouse (12-16 h of light, temperature day 20-22° C., night 15-18° C.) until the time of application. The pots were treated at the BBCH stage 00-10 of the seeds/plants on a laboratory track sprayer with spray liquors comprising the compositions according to the invention, mixtures or components used individually, as WG, WP, EC or other formulations. The application rate for the spray application was 100-600 l of water/ha. […]

LOLPE = Lolium perenne [2] = assay: as above; details: g of AS/ha: (A) 120, (B) 1200, (A)+(B) 120 + 1200
Protocol: as §1, §2, §3

STEME = Stellaria media [3] = assay: Greenhouse trial, post-emergence (PO) action against weeds (test method 2); details: PO application; g of AS/ha: (A) 120, (B) 1200, (A)+(B) 120 + 1200; about 3 weeks after application
Protocol: as §1, §2, §3

LOLPE = Lolium perenne [4] = assay: as above; details: PO application; g of AS/ha: (A) 120, (B) 1200, (A)+(B) 120 + 1200; about 3 weeks after application
Protocol: as §1, §2, §3

VIOAR = Viola arvensis = assay: as above; details: PO application; g of AS/ha: (A) 120, (B) 1200, (A)+(B) 120 + 1200; about 3 weeks after application
Protocol: as §1, §2, §3

[5] = system: MATCH = Matricaria chamomilla; assay: Greenhouse trial, pre-emergence (PE) action against weeds (test method 1); details: PE application; g of AS/ha: (A) 90, (B) 1200, (A)+(B) 90 + 1200
Protocol: as §1, §2
(§4) (notes: the term “seeds” also includes vegetative propagation forms such as, for example, rhizome pieces; abbreviations used: h light=hours of illumination, g of AS/ha=gram of active substance per hectare, l/ha=liter per hectare, S=sensitive, R=resistant) • 1. Pre-emergence action against weeds: seeds of various broad-leaved weed and weed grass biotypes (origins) were sown in a 8-13 cm diameter pot filled with natural soil of a standard field soil (loamy silt; non-sterile) and covered with a covering soil layer of about 1 cm. The pots were then cultivated in a greenhouse (12-16 h of light, temperature day 20-22° C., night 15-18° C.) until the time of application. The pots were treated at the BBCH stage 00-10 of the seeds/plants on a laboratory track sprayer with spray liquors comprising the compositions according to the invention, mixtures or components used individually, as WG, WP, EC or other formulations. The application rate for the spray application was 100-600 l of water/ha. After the treatment, the plants were returned to the greenhouses and, when required, treated with fertilizer and watered. • 2. Post-emergence action against weeds: seeds of various broad-leaved weed and weed grass biotypes (origins) were sown in a 8-13 cm diameter pot filled with natural soil of a standard field soil (loamy silt; non-sterile) and covered with a covering soil layer of about 1 cm. The pots were then cultivated in a greenhouse (12-16 h of light, temperature day 20-22° C., night 15-18° C.) until the time of application. […]

AVEFA = Avena fatua [6] = assay: as above; details: PE application; g of AS/ha: (A) 90, (B) 1200, (A)+(B) 90 + 1200
Protocol: as §1, §2, §4

[7] = system: ALOMY sensitive (Alopecurus myosuroides); assay: Greenhouse trial, PE application on resistant biotypes (test method 8); details: sensitive biotype, g of AS/ha: (A) 90, (B) 1200, (A)+(B) 90 + 1200
Protocol: as §1, §2, §3

[8] = system: MATCH resistant (Matricaria chamomilla); assay: as above; details: resistant biotype, g of AS/ha: (A) 90, (B) 1200, (A)+(B) 90 + 1200, (C) 10
Protocol: as §1, §2, §3

[9] = system: ALOMY resistant (Alopecurus myosuroides); assay: as above; details: resistant biotype, g of AS/ha: (A) 90, (B) 1200, (A)+(B) 90 + 1200
Protocol: as §1, §2, §3

[10] = system: MATCH sensitive (Matricaria chamomilla); assay: as above; details: sensitive biotype, g of AS/ha: (A) 90, (B) 1200, (A)+(B) 90 + 1200, (C) 10
Protocol: as §1, §2, §3

STEME = Stellaria media [11] = assay: Greenhouse trial, activity with different soil types (test method 7); details: g of AS/ha: (A) 120, (B) 1200, (A)+(B) 120 + 1200
Protocol: as §1, §2, §3

[12] = system: MATCH = Matricaria chamomilla; assay: Greenhouse trial, PE application with different irrigation variations (test method 6); details: g of AS/ha: (A) 120, (B) 1200, (A)+(B) 120 + 1200
Protocol: as §1, §2, §3

AVEFA = Avena fatua [13] = assay: as above; details: g of AS/ha: (A) 120, (B) 1200, (A)+(B) 120 + 1200
Protocol: as §1, §2, §3

[14] = system: MATCH = Matricaria chamomilla; assay: Greenhouse trial, pre-sowing application 7 days prior to sowing (test method 5); details: g of AS/ha: (A) 90, (B) 1200, (A)+(B) 90 + 1200
Protocol: as §1, §2
(§5) (notes: the term “seeds” also includes vegetative propagation forms such as, for example, rhizome pieces; abbreviations used: h light=hours of illumination, g of AS/ha=gram of active substance per hectare, l/ha=liter per hectare, S=sensitive, R=resistant) • 1. Pre-emergence action against weeds: seeds of various broad-leaved weed and weed grass biotypes (origins) were sown in a 8-13 cm diameter pot filled with natural soil of a standard field soil (loamy silt; non-sterile) and covered with a covering soil layer of about 1 cm. The pots were then cultivated in a greenhouse (12-16 h of light, temperature day 20-22° C., night 15-18° C.) until the time of application. The pots were treated at the BBCH stage 00-10 of the seeds/plants on a laboratory track sprayer with spray liquors comprising the compositions according to the invention, mixtures or components used individually, as WG, WP, EC or other formulations. The application rate for the spray application was 100-600 l of water/ha. After the treatment, the plants were returned to the greenhouses and, when required, treated with fertilizer and watered. • 2. Post-emergence action against weeds: seeds of various broad-leaved weed and weed grass biotypes (origins) were sown in a 8-13 cm diameter pot filled with natural soil of a standard field soil (loamy silt; non-sterile) and covered with a covering soil layer of about 1 cm. The pots were then cultivated in a greenhouse (12-16 h of light, temperature day 20-22° C., night 15-18° C.) until the time of application. The pots were treated at various BBCH stages between 11-25 of the seeds/plants, i.e. generally between two to three weeks after the start of the cultivation, on a laboratory track sprayer with spray liquors comprising the compositions according to the invention, mixtures or components used individually, as WG, WP, EC or other formulations. The application rate for the spray application was 100-600 l of water/ha. After the treatment, the plants were returned to the greenhouses and, when required, treated with fertilizer and watered. • 3. […]

AVEFA = Avena fatua [15] = assay: as above; details: g of AS/ha: (A) 90, (B) 1200, (A)+(B) 90 + 1200
Protocol: as §1, §2, §5

## CC(C)N(C(=O)COc1nnc(C(F)(F)F)s1)c1ccc(F)cc1 [(A) flufenacet, N-(4-fluorophenyl)-N-(1-methylethyl)-2-[[5-(trifluoromethyl)-1,3,4-thiadiazol-2-yl]oxy]acetamide]
STEME = Stellaria media [1]; sowing depth 5 mm
  activity STEME, sowing depth 5 mm (visual assessment, scale 0-100% vs untreated): 0%
STEME = Stellaria media [1]; sowing depth 20 mm
  activity STEME, sowing depth 20 mm (visual assessment, scale 0-100% vs untreated): 20%
LOLPE = Lolium perenne [2]; sowing depth 5 mm
  activity LOLPE, sowing depth 5 mm (visual assessment, scale 0-100% vs untreated): 80%
LOLPE = Lolium perenne [2]; sowing depth 20 mm
  activity LOLPE, sowing depth 20 mm (visual assessment, scale 0-100% vs untreated): 90%
STEME = Stellaria media [3]
  activity STEME (visual assessment, scale 0-100% vs untreated): 30%
LOLPE = Lolium perenne [4]
  activity LOLPE (visual assessment, scale 0-100% vs untreated): 65%
VIOAR = Viola arvensis
  activity VIOAR (visual assessment, scale 0-100% vs untreated): 40%
[5]
  activity MATCH (visual assessment, scale 0-100% vs untreated): 15%
AVEFA = Avena fatua [6]
  activity AVEFA (visual assessment, scale 0-100% vs untreated): 85%
[7]
  activity ALOMY sensitive (visual assessment, scale 0-100% vs untreated): 80%
[8]
  activity MATCH resistant (visual assessment, scale 0-100% vs untreated): 30%
[9]
  activity ALOMY resistant (visual assessment, scale 0-100% vs untreated): 68%
[10]
  activity MATCH sensitive (visual assessment, scale 0-100% vs untreated): 30%
STEME = Stellaria media [11]; IU soil (loamy silt, standard field soil)
  activity STEME IU soil (visual assessment, scale 0-100% vs untreated): 89%
STEME = Stellaria media [11]; IU/EC73 soil (heavier soil, higher organic substance)
  activity STEME IU/EC73 soil (visual assessment, scale 0-100% vs untreated): 0%
STEME = Stellaria media [11]; IU/EC73 soil versus IU soil
  Difference of the soil types Δ^D, STEME: Δ^D −89%
[12]; irrigation from above
  activity MATCH (visual assessment, scale 0-100% vs untreated): 97%
[12]; irrigation from below
  activity MATCH (visual assessment, scale 0-100% vs untreated): 35%
AVEFA = Avena fatua [13]; irrigation from above
  activity AVEFA (visual assessment, scale 0-100% vs untreated): 85%
AVEFA = Avena fatua [13]; irrigation from below
  activity AVEFA (visual assessment, scale 0-100% vs untreated): 50%
[14]
  activity MATCH (visual assessment, scale 0-100% vs untreated): 93%
AVEFA = Avena fatua [15]
  activity AVEFA (visual assessment, scale 0-100% vs untreated): 70%
